Results from US20160200733A1, “SUBSTITUTED THIENO[2,3-B]PYRIDINE-2-CARBOXAMIDE ANALOGS AS POSITIVE ALLOSTERIC MODULATORS OF THE MUSCARINIC ACETYLCHOLINE RECEPTOR M4” (Vanderbilt University, priority 2013, published 2016).

Target: T1, mAChR hM4 (Homo sapiens, UniProt P08173)
T1 construct: expressed in transfected cells; host or cells: CHO-K1 (Chinese hamster ovary) cells
T1 sequence (P08173 1-479): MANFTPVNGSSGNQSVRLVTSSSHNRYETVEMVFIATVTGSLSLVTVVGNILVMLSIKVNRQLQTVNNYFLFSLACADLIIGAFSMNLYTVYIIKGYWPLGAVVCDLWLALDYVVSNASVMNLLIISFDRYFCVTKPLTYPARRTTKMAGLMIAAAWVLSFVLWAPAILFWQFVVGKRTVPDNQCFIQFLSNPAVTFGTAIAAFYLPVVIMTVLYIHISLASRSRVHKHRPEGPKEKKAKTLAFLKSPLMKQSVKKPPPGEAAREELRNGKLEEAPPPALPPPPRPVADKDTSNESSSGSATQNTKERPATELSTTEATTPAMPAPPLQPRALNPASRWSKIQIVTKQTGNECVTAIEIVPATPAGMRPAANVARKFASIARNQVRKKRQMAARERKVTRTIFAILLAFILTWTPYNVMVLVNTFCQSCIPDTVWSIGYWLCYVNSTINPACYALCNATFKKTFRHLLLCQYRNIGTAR
Experiment: mAChR M4 cell-based functional assay (calcium flux, potentiation of EC20 acetylcholine response)
Details: mAChR hM4 cell-line; for Emax at 30 µM: % ACh maximum at 30 μM; for EC50: >10,000 estimated for low potency compounds lacking a plateau
Excerpt: In one aspect, the disclosed compounds potentiate the agonist response (e.g., acetylcholine) of mAChR M4. In a further aspect, the disclosed compounds increase mAChR M4 response to non-maximal concentrations of agonist in the presence of compound compared to the response to agonist in the absence of compound. […] For example, activation of mAChR M4 activity can be determined by measurement of calcium flux in response to agonist, e.g. acetylcholine, in cells loaded with a Ca^2+-sensitive fluorescent dye (e.g., Fluo-4). In a further aspect, the calcium flux was measured as an increase in fluorescent static ratio. In a yet further aspect, positive allosteric modulator activity was analyzed as a concentration-dependent increase in the EC20 acetylcholine response (i.e. the response of mAChR M4 at a concentration of acetylcholine that yields 20% of the maximal response).
In one aspect, the disclosed compounds activate mAChR M4 response as an increase in calcium fluorescence in mAChR M4-transfected CHO-K1 cells in the presence of the compound, compared to the response of equivalent CHO-K1 cells in the absence of the compound. […] In a further aspect, the mAChR M4-transfected CHO-K1 cells are transfected with human mAChR M4. In a still further aspect, the mAChR M4-transfected CHO-K1 cells are transfected with rat mAChR M4.
Substituted 3-aminothieno[2,3-c]pyridine-2-carboxamide analogs were synthesized as described above. Activity (EC50 and Emax) was determined in the mAChR M4 cell-based functional assay as described above, and the data are shown in Table II for assays conducted using mAChR hM4 cell-line. The compound number corresponds to the compound numbers used in Table I.

Compound `COc1ccc(CNC(=O)c2sc3nc(C)cc(C)c3c2C)cc1` [Compound 17, N-(4-methoxybenzyl)-3,4,6-trimethylthieno[2,3-b]pyridine-2-carboxamide] has an Emax at 30 µM of 53% and an EC50 of 2.4 µM.
`Cc1nc2sc(C(=O)N3CCC(c4ccccc4)C3)c(-c3cnn(C)c3)c2c(C)c1Cl` (stereo not shown) [Compound 86, (5-chloro-4,6-dimethyl-3-(1-methyl-1H-pyrazol-4-yl)thieno[2,3-b]pyridin-2-yl)(3-phenylpyrrolidin-1-yl)methanone] showed an EC50 of over 10 µM.
`COc1ccc2c(c1)CCN(C(=O)c1sc3nc(C)cc(C)c3c1C)C2` [Compound 28, (6-methoxy-3,4-dihydroisoquinolin-2(1H)-yl)(3,4,6-trimethylthieno[2,3-b]pyridin-2-yl)methanone] showed an EC50 of over 10 µM.
For `COc1ccc(CN(C)C(=O)c2sc3nc(C)c(Cl)c(C)c3c2Br)cc1` [Compound 43, 3-bromo-5-chloro-N-(4-methoxybenzyl)-N,4,6-trimethylthieno[2,3-b]pyridine-2-carboxamide], the EC50 was over 10 µM.
`Cc1nc2sc(C(=O)NC3CC3)c(C3CC3)c2c(C)c1Cl` [Compound 54, 5-chloro-N,3-dicyclopropyl-4,6-dimethylthieno[2,3-b]pyridine-2-carboxamide] was tested, and the Emax at 30 µM was 50% and the EC50 was 0.43 µM.
Work on `Cc1nc2sc(C(=O)NC3(C)COC3)c(Br)c2c(C)c1Cl` [Compound 48, 3-bromo-5-chloro-4,6-dimethyl-N-(3-methyloxetan-3-yl)thieno[2,3-b]pyridine-2-carboxamide] yielded an Emax at 30 µM of 54% and an EC50 of 0.57 µM.
In the case of `Cc1nc2sc(C(=O)NC3CC3)c(-c3cnn(C)c3)c2c(C)c1Cl` [Compound 90, 5-chloro-N-cyclopropyl-4,6-dimethyl-3-(1-methyl-1H-pyrazol-4-yl)thieno[2,3-b]pyridine-2-carboxamide], the EC50 is reported as over 10 µM.
For `COc1ccc(CNC(=O)c2cc3c(C)cc(C)nc3s2)cc1F` [Compound 84, N-(3-fluoro-4-methoxybenzyl)-4,6-dimethylthieno[2,3-b]pyridine-2-carboxamide], the Emax at 30 µM was 49% and the EC50 was 6.7 µM.
`Cc1cc(C)c2cc(C(=O)NCC3CCN(c4ccccc4)C3)sc2n1` (stereo not shown) [Compound 80, 4,6-dimethyl-N-((1-phenylpyrrolidin-3-yl)methyl)thieno[2,3-b]pyridine-2-carboxamide] gave an EC50 of over 10 µM.
`Cc1nc2sc(C(=O)NC3COC3)c(-c3ccccc3)c2c(C)c1Cl` [Compound 62, 5-chloro-4,6-dimethyl-N-(oxetan-3-yl)-3-phenylthieno[2,3-b]pyridine-2-carboxamide] was tested, and the EC50 was over 10 µM.
For `Cc1cc(C)c2c(Br)c(C(=O)N3CCOCC3)sc2n1` [Compound 14, (3-bromo-4,6-dimethylthieno[2,3-b]pyridin-2-yl)(morpholino)methanone], the EC50 was over 10 µM.
With `Cc1cc(C)c2c(-c3cnn(C)c3)c(C(=O)N3CCC(c4ccccc4)C3)sc2n1` (stereo not shown) [Compound 67, (4,6-dimethyl-3-(1-methyl-1H-pyrazol-4-yl)thieno[2,3-b]pyridin-2-yl)(3-phenylpyrrolidin-1-yl)methanone] the EC50 was over 10 µM.
`Cc1nc2sc(C(=O)NC3[C@H]4C[C@H]3C4)c(-c3cnn(C)c3)c2c(C)c1Cl` (stereo partly drawn) [Compound 94, N-((1R,3S)-bicyclo[1.1.1]pentan-2-yl)-5-chloro-4,6-dimethyl-3-(1-methyl-1H-pyrazol-4-yl)thieno[2,3-b]pyridine-2-carboxamide] showed an EC50 of over 10 µM.
Work on `Cc1nc2sc(C(=O)NC3CCOC3)c(-c3cnn(C)c3)c2c(C)c1Cl` (stereo not shown) [Compound 91, 5-chloro-4,6-dimethyl-3-(1-methyl-1H-pyrazol-4-yl)-N-(tetrahydrofuran-3-yl)thieno[2,3-b]pyridine-2-carboxamide] yielded an EC50 of over 10 µM.
In the case of `Cc1nc2sc(C(=O)N3CC(c4ccccc4)C3)c(C3CC3)c2c(C)c1Cl` [Compound 72, (5-chloro-3-cyclopropyl-4,6-dimethylthieno[2,3-b]pyridin-2-yl)(3-phenylazetidin-1-yl)methanone], the EC50 is reported as over 10 µM.
Work on `Cc1cc(C)c2cc(C(=O)N3CCC(c4ccccc4)C3)sc2n1` (stereo not shown) [Compound 83, (4,6-dimethylthieno[2,3-b]pyridin-2-yl)(3-phenylpyrrolidin-1-yl)methanone] yielded an EC50 of over 10 µM.
For `Cc1cc(C)c2c(C)c(C(=O)NCc3ccc(OC(F)(F)F)cc3)sc2n1` [Compound 21, 3,4,6-trimethyl-N-(4-(trifluoro-methoxy)benzyl)thieno[2,3-b]pyridine-2-carboxamide], the EC50 was over 10 µM.
In the case of `Cc1cc(C)c2c(Br)c(C(=O)N3Cc4ccccc4C3)sc2n1` [Compound 5, (3-bromo-4,6-dimethylthieno[2,3-b]pyridin-2-yl)(isoindolin-2-yl)methanone], the EC50 is reported as over 10 µM.
Compound `Cc1cnc2sc(C(=O)NCc3ccc(-c4cccnc4F)cc3)cc2c1C` [Compound 101, N-(4-(2-fluoropyridin-3-yl)benzyl)-4,5-dimethylthieno[2,3-b]pyridine-2-carboxamide] has an Emax at 30 µM of 41% and an EC50 of 2.7 µM.
For `Cc1nc2sc(C(=O)NC3COC3)c(C3CC3)c2c(C)c1Cl` [Compound 55, 5-chloro-3-cyclopropyl-4,6-dimethyl-N-(oxetan-3-yl)thieno[2,3-b]pyridine-2-carboxamide], the Emax at 30 µM was 85% and the EC50 was 0.86 µM.
`Cc1nc2sc(C(=O)NCc3cnn(-c4ccccc4)c3)c(-c3cnn(C)c3)c2c(C)c1Cl` [Compound 98, 5-chloro-4,6-dimethyl-3-(1-methyl-1H-pyrazol-4-yl)-N-((1-phenyl-1H-pyrazol-4-yl)methyl)thieno[2,3-b]pyridine-2-carboxamide] showed an EC50 of over 10 µM.
Work on `Cc1nc2sc(C(=O)NCc3ccc4c(c3)OCCO4)c(Br)c2c(C)c1Cl` [Compound 39, 3-bromo-5-chloro-N-((2,3-dihydrobenzo[b][1,4]dioxin-6-yl)methyl)-4,6-dimethylthieno[2,3-b]pyridine-2-carboxamide] yielded an EC50 of over 10 µM.
In the case of `Cc1nc2sc(C(=O)NC3CC3)c(Br)c2c(C)c1Cl` [Compound 49, 3-bromo-5-chloro-N-cyclopropyl-4,6-dimethylthieno[2,3-b]pyridine-2-carboxamide], the Emax at 30 µM is reported as 62% and the EC50 is reported as 0.77 µM.
`Cc1cc(C)c2cc(C(=O)NCc3ccc(S(C)(=O)=O)cc3)sc2n1` [Compound 35, 4,6-dimethyl-N-(4-(methylsulfonyl)benzyl)thieno[2,3-b]pyridine-2-carboxamide] was tested, and the Emax at 30 µM was 41% and the EC50 was over 10 µM.
`Cc1nc2sc(C(=O)NC3COC3)c(-c3ccc4nccnc4c3)c2c(C)c1Cl` [Compound 116, 5-chloro-4,6-dimethyl-N-(oxetan-3-yl)-3-(quinoxalin-6-yl)thieno[2,3-b]pyridine-2-carboxamide] gave an EC50 of over 10 µM.
`Cc1cc(C)c2c(-c3ccccc3)c(C(=O)NCc3ccc(S(C)(=O)=O)cc3)sc2n1` [Compound 34, 4,6-dimethyl-N-(4-(methylsulfonyl)benzyl)-3-phenylthieno[2,3-b]pyridine-2-carboxamide] showed an EC50 of over 10 µM.
Compound `Cc1nc2sc(C(=O)NCC3(C)COC3)c(Cl)c2c(C)c1Cl` [Compound 125, 3,5-dichloro-4,6-dimethyl-N-((3-methyloxetan-3-yl)methyl)thieno[2,3-b]pyridine-2-carboxamide] has an EC50 of over 10 µM.
`COc1ccc(C(C)NC(=O)c2sc3nc(C)c(Cl)c(C)c3c2Br)cc1` (stereo not shown) [Compound 40, 3-bromo-5-chloro-N-(1-(4-methoxyphenyl)ethyl)-4,6-dimethylthieno[2,3-b]pyridine-2-carboxamide] showed an EC50 of over 10 µM.
For `Cc1nc2sc(C(=O)NC3[C@H]4C[C@@H]3C4)c(Cl)c2c(C)c1Cl` (stereo partly shown) [Compound 127, N-((1s,3s)-bicyclo[1.1.1]pentan-2-yl)-3,5-dichloro-4,6-dimethylthieno[2,3-b]pyridine-2-carboxamide], the Emax at 30 µM was 35% and the EC50 was over 10 µM.
Work on `Cc1cnc2sc(C(=O)NCc3ccc(-c4ccnnc4)s3)cc2c1C` [Compound 104, 4,5-dimethyl-N-((5-(pyridazin-4-yl)thiophen-2-yl)methyl)thieno[2,3-b]pyridine-2-carboxamide] yielded an EC50 of over 10 µM.
`Cc1nc2sc(C(=O)NCc3cnn(-c4ccccc4)c3)c(C3CC3)c2c(C)c1Cl` [Compound 73, 5-chloro-3-cyclopropyl-4,6-dimethyl-N-((1-phenyl-1H-pyrazol-4-yl)methyl)thieno[2,3-b]pyridine-2-carboxamide] was tested, and the EC50 was over 10 µM.
